Paper PMC7829778, “Optimization of 1,4-Naphthoquinone Hit Compound: A Computational, Phenotypic, and In Vivo Screening against Trypanosoma cruzi” (Molecules, 2021)
Read-outs that look alike come from different tables or passages of the source.

Tests used:
[1] = tested on: T. cruzi trypomastigotes Dm28c-Luc; assay: Trypanocidal activity against trypomastigotes, Dm28c-Luc clone (luciferase); type: cell-based, Trypanosoma cruzi; conditions: Trypanosoma cruzi, 24 h, mean ± SD of three experiments; for IC50: read-out: Trypanocidal Effect Trypomastigotes Dm28c-Luc IC50; for IC90: read-out: Trypanocidal Effect Trypomastigotes Dm28c-Luc IC90
Method: (§1) T. cruzi Dm28c-Luc clone, genetically modified to express firefly luciferase, and Y strain were used in the drug screening assay. Vero cells were infected with T. cruzi, Dm28c-Luc or Y strain, in a 10:1 parasites/host cell ratio and maintained at 37 °C in humidified atmosphere of 5% CO2. Trypomastigotes were harvested from the infected culture supernatant on the 4th day post-infection (dpi) followed by quantification of the number of parasites/mL in Neubauer chamber.
(§2) Screening of the compounds was performed against trypomastigotes and intracellular amastigote forms. Trypomastigotes (1 × 10^6 parasites/well), Dm28c-Luc clone and Y strain, were incubated for 24 h at 37 °C with the 1,4 naphthoquinone derivatives and Bz (0.41–100 μM) and their viability determined by the activity of the luciferase enzyme, after addition of luciferin substrate (300 μg/mL), or CellTiter Glo. The luminescent signal was detected on the FlexStation 3 reader.

[2] = tested on: T. cruzi trypomastigotes Y strain; assay: Trypanocidal activity against trypomastigotes, Y strain (CellTiter Glo); type: cell-based; conditions: Trypanosoma cruzi, 24 h
Method: as §1, §2

[3] = Cytotoxicity in vitro assay (CellTiter Glo, ATP level); type: cell-based; conditions: African green monkey, Vero cells
Method: The cultures were maintained at 37 °C in humidified atmosphere of 5% CO2.
To evaluate the toxic effects of the 1,4-naphthoquinone derivatives on mammalian cells, Vero cells were seeded at a density of 1.5 × 10^4 cells/well in 96-well white culture plates. Twenty-four hours later, the cell cultures were incubated for 72 h at 37 °C with 1,4-naphthoquinone derivatives (series 1(a–i) and 2(a–j)) and Bz (500–1.9 µM) diluted in RPMI medium supplemented with 10% FBS. After incubation, the cell viability, measured by ATP level, was assessed by adding 20 µL/well of the CellTiter Glo (Promega Corporation, Madison, WI, EUA) solution. The luminescent signal was read on the FlexStation 3 reader (Molecular Devices, Sunnyvale, CA, USA). […] All treatments and controls were performed at low concentration (≤1%) of dimethyl sulfoxide (DMSO). At least three independent assays were performed in duplicate.

[4] = tested on: intracellular amastigotes of T. cruzi (Dm28c-Luc clone); assay: Luminescent screening against intracellular amastigotes in infected Vero cells; type: cell-based, Trypanosoma cruzi; conditions: infected Vero cells treated for 72 h, mean ± SD of three experiments
Method: as §1
The effect of the compounds against intracellular amastigotes was screened in 72 h T. cruzi-infected Vero cells. Briefly, Vero cells seeded (1.5 × 10^4 cells/well) on 96-well white plate infected with trypomastigotes (Dm28c-Luc) at a 10:1 multiplicity of parasites/cell. After 24 h of infection, the cultures were washed with PBS and then, treated for 72 h at 37 °C with naphthoquinone derivatives and Bz (0.41–100 µM). After treatment, luciferin (300 µg/mL) was added to the culture and the viability of the parasites was assessed by reading the luminescent signal using the FlexStation 3 reader. Controls were also performed in no-toxic concentrations of DMSO (≤1%).

[5] = trypomastigotes, mean ± SD of three experiments, read-out: Trypanocidal Effect Trypomastigotes Y Strain IC50
[6] = trypomastigotes, mean ± SD of three experiments, read-out: Trypanocidal Effect Trypomastigotes Y Strain IC90
[7] = Table 1, mean ± SD, read-out: Vero Cells Toxicity CC50
[8] = read-out: Trypanocidal Effect Trypomastigotes Y Strain IC50, trypomastigotes, 24 h, mean ± SD of three experiments
[9] = read-out: Trypanocidal Effect Trypomastigotes Y Strain IC90, trypomastigotes, 24 h, mean ± SD of three experiments

Row | Compound | IC50 [1] [µM] | IC90 [1] [µM] | IC50 [2, 5] [µM] | IC90 [2, 6] [µM] | CC50 at 72 h [3, 7] [µM] | CC50 at 72 h ([3]; Table 2, read-out: CC50 Vero) [µM] | IC50 ([4]; Trypanosoma cruzi, Vero, 72 h) [µM] | IC90 ([4]; Trypanosoma cruzi) [µM] | IC50 [4] [µM] | melting point [°C] | IC50 [2, 8] [µM] | IC90 [2, 9] [µM]
1 | O=C1C(O)=C(C(Sc2ccc(Cl)cc2)c2ccc(Cl)cc2)C(=O)c2ccccc21 (centres unmarked) [Compound 1a, 2-((4-chlorophenyl)((4-chlorophenyl)thio)methyl)-3-hydroxynaphthalene-1,4-dione] | 8.9 ± 0.6 | 25.1 ± 1.6 | 3.1 ± 0.6 | 5.8 ± 0.9 | 43.6 ± 2.3 | 43.6 ± 2.3 | ≤ 6.9 | 12.1 ± 1.3 | 6.2 ± 0.9 | 135 to 136 |  | 
2 | O=C1C(O)=C(C(Sc2ccc(Cl)cc2)c2cccc(Cl)c2)C(=O)c2ccccc21 (centres unmarked) [Compound 1b, 2-((3-chlorophenyl)((4-chlorophenyl)thio)methyl)-3-hydroxynaphthalene-1,4-dione] | 9.8 ± 0.5 | 30.8 ± 2.9 | 3.6 ± 1.6 | 8.1 ± 1.3 | 42.1 ± 1.9 | 42.1 ± 1.9 | ≤ 6.9 | 12.7 ± 1.8 | 6.9 ± 1.5 |  |  | 
3 | O=C1C(O)=C(C(Sc2ccc(Cl)cc2)c2ccccc2Cl)C(=O)c2ccccc21 (centres unmarked) [Compound 1c, 2-((2-chlorophenyl)((4-chlorophenyl)thio)methyl)-3-hydroxynaphthalene-1,4-dione] | 8.6 ± 1.4 | 29.6 ± 5.4 | 4.3 ± 3.2 | 7.3 ± 2.2 | 44.1 ± 2.3 | 44.1 ± 2.3 | 9.3 ± 0.8 | 23.1 ± 3.3 |  | 183 to 184 |  | 
4 | O=C1C(O)=C(C(Sc2ccc(Cl)cc2Cl)c2ccccc2)C(=O)c2ccccc21 (centres unmarked) [Compound 1d, 2-(((2,4-dichlorophenyl)thio)(phenyl)methyl)-3-hydroxynaphthalene-1,4-dione] | 9.3 ± 1.1 | 23.3 ± 2.1 | 2.8 ± 0.6 | 5.8 ± 1.1 | 82.1 ± 5.1 | 82.1 ± 5.1 | 13.5 ± 2.1 | 31.1 ± 3.1 |  | 144 to 145 |  | 
5 | O=C1C(O)=C(C(Sc2ccc(Cl)cc2)c2ccccc2)C(=O)c2c(O)cccc21 (centres unmarked) [Compound 1f, 3-(((4-chlorophenyl)thio)(phenyl)methyl)-2,5-dihydroxynaphthalene-1,4-dione] | 9.8 ± 0.7 | 28.1 ± 1.7 |  |  | 41.1 ± 2.1 | 41.1 ± 2.1 | 10.1 ± 1.4 | 29.1 ± 2.1 |  |  |  | 
6 | COc1ccc(C(Sc2ccc(Cl)cc2)C2=C(O)C(=O)c3ccccc3C2=O)c(OC)c1 (centres unmarked) [Compound 1h, 2-(((4-chlorophenyl)thio)(2,4-dimethoxyphenyl)methyl)-3-hydroxynaphthalene-1,4-dione] | 15.4 ± 4.6 |  |  |  | 24.4 ± 2.6 | 24 to 34 | 12.1 ± 3.9 | 19.4 ± 3.6 |  |  | 22.9 ± 7.1 | 31.9 ± 6.1
7 | COc1ccc(C(Sc2ccc(Cl)cc2)C2=C(O)C(=O)c3ccccc3C2=O)c(OC)c1OC (centres unmarked) [Compound 1i, 2-(((4-chlorophenyl)thio)(2,3,4-trimethoxyphenyl)methyl)-3-hydroxynaphthalene-1,4-dione] | 21.5 ± 2.9 |  |  |  | 34.2 ± 3.4 | 24 to 34 | 15.9 ± 3.1 | 27.2 ± 3.4 |  |  | 30.1 ± 2.3 | 38.9 ± 4.3
8 | COc1ccc(C(Sc2ccccc2)C2=C(O)C(=O)c3ccccc3C2=O)cc1 (centres unmarked) [Compound 2a, 2-Hydroxy-3-((4-methoxyphenyl)(phenylthio)methyl)naphthalene-1,4-dione] | 27.4 ± 2.9 | 32.1 ± 1.6 | 31.2 ± 4.3 | 38.9 ± 5.3 | 45.1 ± 1.9 | 45.1 ± 1.9 | ≤ 6.9 | 25.3 ± 1.9 | 6.7 ± 1.6 |  |  | 
9 | COc1ccc(C(Sc2cccc(C)c2)C2=C(O)C(=O)c3ccccc3C2=O)cc1 (centres unmarked) [Compound 2c, 2-Hydroxy-3-((4-methoxyphenyl)(m-tolylthio)methyl)naphthalene-1,4-dione] | 52.3 ± 6.4 | 84.6 ± 11.4 | 26.2 ± 4.8 | 32.8 ± 5.1 | 48.9 ± 4.7 | 48.9 ± 4.7 | ~12 | 30.9 ± 4.7 | 12.6 ± 2.4 |  |  | 
10 | COc1ccc(C(Sc2ccc(C)cc2)C2=C(O)C(=O)c3ccccc3C2=O)cc1 (centres unmarked) [Compound 2d, 2-Hydroxy-3-((4-methoxyphenyl)(p-tolylthio)methyl) naphthalene-1,4-dione] | 24.3 ± 3.4 | 82.2 ± 7.7 | 31.1 ± 1.8 | 49.7 ± 7.1 | 142 ± 17.6 | 142 ± 17.6 | 11.9 ± 1.7 | 28.8 ± 4.6 |  |  |  | 
11 | COc1ccc(C(Sc2ccc([N+](=O)[O-])cc2)C2=C(O)C(=O)c3ccccc3C2=O)cc1 (centres unmarked) [Compound 2f, 2-Hydroxy-3-((4-methoxyphenyl)((4-nitrophenyl)thio)methyl)naphthalene-1,4-dione] | 6.5 ± 3.1 | 11.5 ± 3.1 | 12.5 ± 1.6 | 19.9 ± 3.6 | 40.6 ± 2.9 | 40.6 ± 2.9 | ≤ 6.9 | 76.6 ± 4.9 | 5.7 ± 1.4 |  |  | 
12 | CCCSC(C1=C(O)C(=O)c2ccccc2C1=O)c1ccc(OC)cc1 (centres unmarked) [Compound 2g, 2-Hydroxy-3-((4-methoxyphenyl)(propylthio)methyl)naphthalene-1,4-dione] | 13.7 ± 4.1 | 28.7 ± 5.1 | 12.7 ± 3.9 | 23.7 ± 4.1 | 47.7 ± 5.2 | 47.7 ± 5.2 | 10.3 ± 2.4 | 37.7 ± 4.1 |  |  |  | 
13 | COc1ccc(SC(C2=C(O)C(=O)c3ccccc3C2=O)c2ccc(OC)cc2)cc1 (centres unmarked) [Compound 2i, 2-Hydroxy-3-((4-methoxyphenyl)((4-methoxyphenyl)thio)methyl)naphthalene-1,4-dione] | 24.1 ± 2.7 | 44.9 ± 6.7 | 10.6 ± 0.4 | 31.6 ± 5.4 | 44.8 ± 3.3 | 44.8 ± 3.3 | 15.8 ± 3.2 | 34.8 ± 5.3 |  |  |  | 
14 | COc1ccc(C(Sc2ccc(SC)cc2)C2=C(O)C(=O)c3ccccc3C2=O)cc1 (centres unmarked) [Compound 2j, 2-hydroxy-3-((4-methoxyphenyl)((4-(methylthio)phenyl)thio)methyl)naphthalene-1,4-dione] | 52.7 ± 12.6 | > 100 | 89.6 ± 5.4 | > 100 | 93.5 ± 6.6 | 93.5 ± 6.6 | 60.2 ± 9.8 | > 100 |  |  |  | 
